US10842151B2, “Small molecule compound for enhancing plant stress resistance” (SHANGHAI INSTITUTES FOR BIOLOGICAL SCIENCES, CHINESE …, priority 2015, dated 2020)

Experiments:
Kyoho grapes = test: Grape coloring experiment (anthocyanin content); assay type: in vivo; conditions: aqueous suspension; vs fresh water control
Description: The grapes used in the experiment were commercially available variety of Kyoho. According to weather conditions, during the color conversion period of grapes, the fruit ears with the same size and consistent growth were selected and soaked with a water suspension preparation containing 2000 mg/L, 1000 mg/L, 500 mg/L and 100 mg/L of 6% AMX compound 1127 for 10 seconds. Soaking in water was regarded as a control. Each experiment was repeated 10 times, each ear was regarded as a duplicate. Samples were collected after harvesting. Samples were collected from the upper, middle and lower parts of each ear in two directions, i.e., glossy and backlit, with 6 grains collected per ear. The samples were preserved in the laboratory at −20° C. for use.
30 pieces of pericarp were evenly taken from up and low portion around the equator of grape fruit by using a hole puncher with a diameter of 10 mm. After they were mixed well and weighed, the anthocyanin in the pericarp was determined. […] The content of anthocyanins (calculated as cornflower-3-glucoside equivalent) was determined by pH differential method and each treatment was repeated three times. Content of anthocyanins (mg/g) X=ΔA×F×M/ε×m, wherein ΔA was absorbance; F was fold of dilution; M is the relative molecular mass 449.2 of cyanidin-3-glucoside, ε is a molar extinction coefficient 26,900 for cyanidin-3-glucoside; m is sample mass.

[1] = test system: Yunnan Lily variety Siberia; test: Flower preservative experiment; assay type: in vivo; conditions: aqueous suspension 10 ppm (22.5 μM); after 20 days
Description: The commercially available Yunnan Lily varieties “Siberia” biennial buds were used for test, wherein each branch had 5 buds and 10 leaves, and there was 1 branch per bottle. The branch having buds was inserted into a water suspension preparation containing 10 ppm (22.5 μM) of AMX compound 1127 or into tap water. The flower status was recorded before and after 20 days of treatment.

[2] = test system: pyr1;pyl1;pyl4 triple mutant seeds; test: Seed germination, PYR/PYL triple mutant; assay type: in vivo, Arabidopsis thaliana; conditions: 1 μM; six days after seeding
Source text: Two lines of plant were sown simultaneously on a single medium of 6 cm diameter, with 15 seeds sown for each line and 4 replicates for each compound. […]

[3] = test system: Salmonella typhimurium TA98 and TA100; test: Bacterial reverse mutation experiment; assay type: cell-based; conditions: all doses; -S9
Description: (§1) The test substance used in the experiment was AMX compound 1127.
Two strains of Salmonella typhimurium, TA98 and TA100, were used in the bacterial reverse mutation experiment. The experiment was carried out by using standard plate incorporation method under a condition of non-metabolic activation system (−S9). There were totally 7 doses of […] as well as a negative control and a positive control.

PYL2 + HAB1 = target: T1, PYL2 + HAB1 (Arabidopsis thaliana, UniProt O80992); test: AlphaScreen experiment, PYL2 + HAB1; assay type: binding; conditions: number in brackets; read-out: Half maximum effect concentration EC50 (PYL2 + HAB1)
T1 construct: made in house; host or cells: E. coli BL21 (DE3)
T1 sequence (O80992 14-188 limits assumed): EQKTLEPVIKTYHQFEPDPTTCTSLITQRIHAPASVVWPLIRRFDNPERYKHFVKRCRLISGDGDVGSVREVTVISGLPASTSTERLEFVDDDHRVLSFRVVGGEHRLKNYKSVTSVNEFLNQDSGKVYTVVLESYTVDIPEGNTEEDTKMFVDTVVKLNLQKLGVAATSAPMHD
T1 sequence (Q9CAJ0 172-511 partner limits assumed): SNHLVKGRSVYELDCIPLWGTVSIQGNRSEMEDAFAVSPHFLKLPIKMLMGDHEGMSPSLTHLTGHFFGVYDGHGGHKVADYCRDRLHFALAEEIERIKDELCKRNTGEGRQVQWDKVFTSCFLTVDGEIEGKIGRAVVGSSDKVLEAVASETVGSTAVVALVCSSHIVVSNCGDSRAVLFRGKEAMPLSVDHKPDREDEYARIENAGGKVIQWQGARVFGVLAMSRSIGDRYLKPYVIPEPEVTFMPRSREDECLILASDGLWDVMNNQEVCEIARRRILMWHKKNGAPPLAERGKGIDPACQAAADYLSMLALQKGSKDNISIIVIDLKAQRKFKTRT
Description: After incubating for 1.5 hours at room temperature in the dark, it was placed into an Envision Plate Reader (available from Perkin Elmer) under the programmed AlphaScreen procedure for readings.

[4] = test system: Chinese hamster lung cell (CHL); test: In vitro micronucleus experiment; assay type: cell-based; conditions: -S9; 24 hours
Description: as §1
Firstly, CHL cells used in in vitro micronucleus test were tested in IC50 determination experiment. According to IC50 determination results, in vitro micronucleus test dosage was set. 4 doses of 1 μg/ml, 20 μg/ml, 30 μg/ml and 40 μg/ml were set in total, while a negative control and a positive control were also set. The CHL cells were treated for 24 hours under the condition of −S9 and sections were prepared.
The numbers of monocytes, binucleate cells and multinucleated cells in 500 cells per dose were counted and the cytokinesis-block proliferation index (CBPI) and cytotoxicity at each dose were calculated.

soybean Williams 82 = test: Soybean leaf transpiration experiment (thermal imaging); assay type: in vivo; conditions: 50 μM sprayed, 0.2 μmol per plant; after three days; vs DMSO
Description: After three weeks of continuous watering, 0.05% tween-20 and corresponding concentrations of DMSO (control)/compound (+)-ABA/0918/1127 were sprayed onto the plants in a single administration with an amount of 1.2 ml/pot. Images were taken daily using the FLIR A655sc thermal imaging camera at the same time before and after spraying. The Williams 82 ecotype was used in soybean leaf transpiration experiments for compounds 0604c, 0918 and 1127 and was long-day cultured at 26° C. After the plants grew and had 3 leaves in each of 3 groups, 0.05% tween-20 and 50 μM DMSO (control)/(+)-ABA/0604c/0918/1127 compounds were sprayed in a single administration with an amount of 4 ml/pot. Images were taken daily using the FLIR A655sc thermal imaging camera at the same time before and after spraying.
Leaf transpiration experiments of soybean and cotton for compound 0720B were carried out at 26° C. with long-day lighting. 16 days and 23 days after sowing, a solution containing 0.1% tween-20 and corresponding concentration of (+)-ABA, or 0720B compound or 0.1% Tween-20 and 0.05% DMSO (control) was sprayed in an amount of 4 ml/pot. Images were taken daily using the FLIR A655sc thermal imaging camera at the same time before and after spraying.

## CCCN1C(=O)CCc2cc(NS(=O)(=O)Cc3c(F)c(F)c(C)c(F)c3F)ccc21 [Compound 1127]
Kyoho grapes
  content of anthocyanin in grapes peel: significantly higher than that in the fresh water control group
[1]
  flowers remained normal: 60%
  leaf withering: no leave withered
  leaves remained green: 70%
[2]
  germination of pyr1;pyl1;pyl4 triple mutant seeds: could not inhibit germination of PYR/PYL triple mutant pyr1;pyl1;pyl4 seeds
[3]
  bacterial toxicity to TA98 and TA100 strains: no obvious bacterial toxicity
PYL2 + HAB1
  EC50: 20 nM
[4]
  micronuclei rate in CHL cells: did not induce an increased micronuclei rate
Soybean Williams 82
  leaf temperature: still significantly higher than that in the DMSO-sprayed control
